The record followed here is patent US8673585B2, “Biochemical serum marker” (Biouniversa S.r.l., priority 2009, dated 2014).

In assay [1] the test system is J774 cells. The assay is described as follows: Binding of FITC-conjugated recombinant BAG3 to the cell surface (confocal microscopy). The format is cell-based, murine. The following applies: FITC-conjugated protein added to the culture medium for 1 hour. As to the method:
The BAG3 recombinant protein was then conjugated to FITC using the FluoroTag FITC Conjugation Kit (Sigma). Equal amounts of BSA-FITC (negative control) and rBAG3-FITC were added to the culture medium for 1 hour. Cells were then fixed with a solution of 3.7% formaldehyde and analyzed by a Zeiss LSM confocal microscope.
Binding of the BAG3 protein to the surface of J774 cells was confirmed by use of the recombinant protein conjugated with a fluorophore. BAG3 binding is specific because it is not observed when other proteins, for example BSA, are used instead of BAG3.

The subject of assay [2] is J774 cells. The assay is described as follows: Macrophage activation assay: production of nitrites in the culture medium (Griess reagent). Format: cell-based, murine. The procedure:
The recombinant BAG3 protein was used for macrophage activation assays, in order to determine the possible role on blood cells of the protein released in the serum. For this purpose, the murine monocyte J774 cell line was treated with different concentrations of the recombinant BAG3 protein, using a pro-inflammatory agent such as lipopolysaccharide (LPS) as a positive control. J774 cells were plated at 60% confluence and incubated for 24 h with the recombinant BAG3 protein at concentrations of 250, 500 ng/ml and 1 mg/ml, alone or in combination with LPS at a concentration of 10 ng/ml.
Moreover the production of nitrites in the culture medium, which correlates with monocyte activation, was verified with the Griess reagent (1% sulfanilamide, 0.1% naftilethylenediamine, 5% phosphoric acid) and measured in a Beckman DU-62 spectrophotometer at 550 nM (FIG. 9b).
In general terms: Nitrite, measured by Griess reagent, commonly stands in for NO production.

“bovine serum albumin [BSA, reference compound]”: the “binding to the surface of J774 cells” value in assay [1] was “not observed”.

“recombinant BAG3 protein: Recombinant human BAG3 protein expressed in E. coli, His-tagged, purified by affinity chromatography; FITC-conjugated for the binding test”: the “production of nitrites compared to the control (untreated cells)” value in assay [2] (24 h, 500 ng/ml, p<0.001, FIG. 9b) was “increased three-fold”. Further, in assay [2] (24 h, 250, 500 ng/ml and 1 mg/ml, FIGS. 9a and b), the “dose dependence of activity (iNOS expression and nitrites)” value was “dose-dependent”. In assay [1], the “binding to the surface of J774 cells” value is listed as “confirmed”.
